This assay has as its target recombinant human SYK (GST-hSYK fusion protein) (Homo sapiens, UniProt P43405). The assay is described as follows: biochemical.
Setting [1] is: rhSYK Activity (IC50), recombinant human GST-SYK 5 pM, ATP 25 μM, biotinylated substrate peptide 250 nM, HTRF, 10-dose titration.
Where [2] appears, read: Syk IC50, HTRF, recombinant human GST-SYK.

The structures appear in SMILES notation. pIC50: −log10 of the molar value.

Text: Homogeneous Time-Resolved Fluorescence (HTRF) Assay for the Recombinant Human SYK Enzyme:

One may read the pIC50 as the IC50 on a negative log10 scale, so that one unit is a factor of ten. On to `Cc1cc(Nc2nccc(C(F)C3CC3)n2)cc(-c2cnc(C3(O)CCC(C(=O)O)C(C)(C)C3)s2)c1` (single isomer, unassigned) [Example 100A-21], for which the pIC50 under setting [1] is over 7.00.
As to `Cc1cc(Nc2nccc(C(C)(O)C3CC3)n2)cc(-c2cnc(C3(O)CCC(C(=O)O)C(C)(C)C3)s2)c1` (single isomer, unassigned) [Example 100A-25], the pIC50 under setting [1] is over 7.00.
Consider `Cc1cc(Nc2nccc(C(F)(F)F)n2)cc(-c2cnc(C3(O)CCNC(=O)CC3)s2)c1Br` (single isomer, unassigned) [Example 111-1], for which, under setting [1], the pIC50 was 6.00 to 7.00.
For the molecule `Cc1cc(Nc2nccc(C(F)(F)F)n2)cc(-c2cnc(C3(O)CCNC(=O)CC3)s2)c1Br` (single isomer, unassigned) [Example 111-2], under setting [1], the pIC50 is over 7.00.
`Cc1cc(Nc2nccc(C(F)(F)F)n2)cc(-c2cnc(C(C)(O)c3ccc(C(=O)O)cc3)s2)c1` (stereo not drawn) [4-{1-hydroxy-1-[5-(3-methyl-5-{[4-(trifluoromethyl)pyrimidin-2-yl]amino}phenyl)-1,3-thiazol-2-yl]ethyl}benzoic acid]: the pIC50 under setting [2] was over 9.30.
Take `Cc1cc(Nc2nccc(C(F)(F)F)n2)cc(-c2cnc(C3(O)CC4(CC(C(=O)O)C4)C3)s2)c1` (stereo not drawn) [6-hydroxy-6-[5-(3-methyl-5-{[4-(trifluoromethyl)pyrimidin-2-yl]amino}phenyl)-1,3-thiazol-2-yl]spiro[3.3]heptane-2-carboxylic]: the pIC50 under setting [2] is 8.70.
On to `Cc1cc(Nc2ncc(F)c(C)n2)cc(-c2cnc([C@]3(O)CC[C@@H](O)CC3)s2)c1` [8A-1], for which, where the note is “rhSYK Activity, Table 8A”, the pIC50 is over 7.00.
Regarding `Cc1cc(Nc2ncc(Cl)c(C)n2)cc(-c2cnc([C@]3(O)CC[C@@H](O)CC3)s2)c1` [8A-2], where the note is “rhSYK Activity, Table 8A”, the pIC50 is over 7.00.
With `COc1nc(Nc2cc(C)cc(-c3cnc([C@]4(O)CC[C@@H](O)CC4)s3)c2)ncc1F` [8A-3], for the setting “rhSYK Activity, Table 8A”, the pIC50 is over 7.00.
`Cc1cc(Nc2ncc(F)c(C3CC3)n2)cc(-c2cnc([C@]3(O)CC[C@@H](O)CC3)s2)c1` [8A-4]: the pIC50 (rhSYK Activity, Table 8A) is over 7.00.
For the molecule `COc1nc(Nc2cc(C)cc(-c3cnc(C4(O)CCC(O)CC4)s3)c2)ncc1Cl` (stereo not drawn) [8A-5], the pIC50 (rhSYK Activity, Table 8A) is over 7.00.
As to `Cc1cc(Nc2nccc(C(F)(F)F)n2)cc(-c2cnc(C3(O)CCC(O)C(C)(C)C3)s2)c1` (stereo not drawn) [8A-6], under “rhSYK Activity, Table 8A”, the pIC50 was over 7.00.
Regarding `Cc1cc(Nc2ncc(F)c(C)n2)cc(-c2cnc(C3(O)CCC(=O)CC3)s2)c1` [8A-8], the pIC50 (rhSYK Activity, Table 8A) is over 7.00.
On to `NC(=O)[C@H]1CC[C@H](c2ncc(-c3cccc(Nc4nccc(C(F)(F)F)n4)c3)s2)CC1` [23-1], for which the pIC50 (hSYK Activity, table of Example 23-1) was over 7.00.
Regarding `CC(O)c1ncc(-c2cc(Nc3nccc(C(F)(F)F)n3)cc(N3CCOCC3)c2)s1` (stereo not drawn) [24-1], the pIC50 (rhSYK Activity, Table 24) was over 7.00.
Same read-out and setting: with `CC(=O)c1ncc(-c2cc(Nc3nccc(C(F)(F)F)n3)cc(N3CCOCC3)c2)s1` [24-3] the figure was over 7.00.
Regarding `CS(=O)(=O)N1CCN(c2cc(Nc3nccc(C(F)(F)F)n3)cc(-c3cnc(C4(O)CCC4)s3)c2)CC1` [24-4], the negative logarithm of the IC50 (pIC50) (rhSYK Activity, Table 24) was over 7.00.
On the same count and under the same terms, with `CC(O)(c1ncc(-c2cc(Nc3nccc(C(F)(F)F)n3)cc(N3CCOCC3)c2)s1)C1CC1` (stereo not drawn) [24-6] the figure was over 7.00.
For `CC(O)(c1ncc(-c2cc(Nc3nccc(C(F)(F)F)n3)cc(N3CCOCC3)c2)s1)C(F)(F)F` (stereo not drawn) [24-7], the pIC50 (rhSYK Activity, Table 24) was over 7.00.
As for `FC(F)(F)c1ccnc(Nc2cccc(-c3cnc(C4(F)CCC4)s3)c2)n1` [26-3], the pIC50 (rhSYK Activity, Table 26) was 6.00 to 7.00.
`CC(C)(O)c1ncc(-c2cc(Nc3nccc(C(F)(F)F)n3)cc(C(F)F)c2)s1` [28-1]: under “hSYK Activity, table of Example 28-1”, the pIC50 is over 7.00.
Take `Cc1cc(Nc2nccc(C(F)(F)F)n2)cc(-c2cnc(C3(O)CCNC(C(F)(F)F)C3)s2)c1` (stereo not drawn) [46-1]: the pIC50 (rhSYK Activity, Table 46) is over 7.00.
The same measure, in the same setting: to `COC(=O)C1CC(O)(c2ncc(-c3cc(C)cc(Nc4nccc(C(F)(F)F)n4)c3)s2)CCN1` (stereo not drawn) [46-2] belongs over 7.00.
For `Cc1cc(Nc2nccc(C(F)(F)F)n2)cc(-c2cnc(C3(O)CCN(C(N)=O)C3)s2)c1` (stereo not drawn) [54B-2], the negative-log IC50 (pIC50) (rhSYK Activity, Table 54B) was over 7.00.
Take `Cc1cc(Nc2nccc(C(F)(F)F)n2)cc(-c2cnc(C3(O)CCN(C(=O)OC(C)(C)C)C3)s2)c1` (stereo not drawn) [54B-4]: the pIC50 (rhSYK Activity, Table 54B) is 6.00 to 7.00.
For `Cc1cc(Nc2nccc(C(F)(F)F)n2)cc(-c2cnc(C3(O)CCNC3)s2)c1` (stereo not drawn) [54B-5], the pIC50 (rhSYK Activity, Table 54B) is over 7.00.
In the case of `Cc1cc(Nc2nccc(C(F)(F)F)n2)cc(-c2cnc(C3(O)CCN(S(N)(=O)=O)C3)s2)c1` (stereo not drawn) [54B-6], the pIC50 (rhSYK Activity, Table 54B) was over 7.00.
Still for that read-out and setting: to `Cc1cc(Nc2nccc(C(F)(F)F)n2)cc(-c2cnc(C3(O)CCN(S(=O)(=O)NC(=O)OC(C)(C)C)C3)s2)c1` (stereo not drawn) [54B-9] belongs over 7.00.
Regarding `COc1ccnc(Nc2cc(C)cc(-c3cnc(C4(O)CCN(C(N)=O)C4)s3)c2)n1` (stereo not drawn) [54B-10], where the note is “rhSYK Activity, Table 54B”, the pIC50 was over 7.00.
Same read-out and setting: with `COc1ccnc(Nc2cc(C)cc(-c3cnc(C4(O)CCNC4)s3)c2)n1` (stereo not drawn) [54B-11] the figure was over 7.00; with `Cc1cc(Nc2nccc(C)n2)cc(-c2cnc(C3(O)CCNC3)s2)c1` (stereo not drawn) [54B-12], over 7.00.
Take `Cc1cc(Nc2nccc(C)n2)cc(-c2cnc(C3(O)CCN(C(N)=O)C3)s2)c1` (stereo not drawn) [54B-13]: for the setting “rhSYK Activity, Table 54B”, the pIC50 is over 7.00.
For `Cc1cc(Nc2nccc(C(F)(F)F)n2)cc(-c2cnc(C3(O)CCN(CCO)C3)s2)c1` (stereo not drawn) [54B-19], the pIC50 (rhSYK Activity, Table 54B) was over 7.00.
Consider `Cc1cc(Nc2nccc(C(F)(F)F)n2)cc(-c2cnc(C3(O)CCN(CC(N)=O)C3)s2)c1` (stereo not drawn) [54B-20], for which, under “rhSYK Activity, Table 54B”, the pIC50 was over 7.00.
As to `Cc1cc(Nc2nccc(C(F)(F)F)n2)cc(-c2cnc(C3(O)CCN(C(=O)CO)C3)s2)c1` (stereo not drawn) [54B-21], where the note is “rhSYK Activity, Table 54B”, the pIC50 is over 7.00.
In the case of `Cc1cc(Nc2nccc(C(F)(F)F)n2)cc(-c2cnc(C3(O)CCN(CC(=O)O)C3)s2)c1` (stereo not drawn) [54B-22], the pIC50 (rhSYK Activity, Table 54B) is over 7.00.
On the same count and under the same terms, with `Cc1cc(Nc2nccc(C(F)(F)F)n2)cc(-c2cnc(C3(O)CCN(C(=O)C(N)=O)C3)s2)c1` (stereo not drawn) [54B-23] the figure was over 7.00; with `COC(=O)CN1CCC(O)(c2ncc(-c3cc(C)cc(Nc4nccc(C(F)(F)F)n4)c3)s2)C1` (stereo not drawn) [54B-24], over 7.00.
Regarding `Cc1cc(Nc2nccc(C(F)(F)F)n2)cc(-c2cnc(C3(O)CCN(C(=O)C(=O)O)C3)s2)c1` (stereo not drawn) [54B-25], for the setting “rhSYK Activity, Table 54B”, the pIC50 was over 7.00.
For `Cc1cc(Nc2nccc(C(F)(F)F)n2)cc(-c2cnc(C3(O)CCN(C(=O)CC(N)=O)C3)s2)c1` (stereo not drawn) [54B-26], the pIC50 (rhSYK Activity, Table 54B) is over 7.00.
For the molecule `COC(=O)C(=O)N1CCC(O)(c2ncc(-c3cc(C)cc(Nc4nccc(C(F)(F)F)n4)c3)s2)C1` (stereo not drawn) [54B-27], the pIC50 (rhSYK Activity, Table 54B) is over 7.00.
Take `Cc1cc(Nc2nccc(C(F)(F)F)n2)cc(-c2cnc(C3(O)CCN(C(=O)C(O)CO)C3)s2)c1` (stereo not drawn) [54B-28]: where the note is “rhSYK Activity, Table 54B”, the pIC50 was over 7.00.
Take `Cc1cc(Nc2nccc(C(F)(F)F)n2)cc(-c2cnc(C3(O)CCN(C(=O)c4ccno4)C3)s2)c1` (stereo not drawn) [54B-29]: the pIC50 (rhSYK Activity, Table 54B) is over 7.00.
For the molecule `Cc1cc(Nc2nccc(C(F)(F)F)n2)cc(-c2cnc(C3(O)CCN(C(=O)C4(O)CCC4)C3)s2)c1` (stereo not drawn) [54B-30], the pIC50 (rhSYK Activity, Table 54B) is over 7.00.
For the molecule `Cc1cc(Nc2nccc(C(F)(F)F)n2)cc(-c2cnc(C3(O)CCN(C4CCC(C(=O)O)C4)C3)s2)c1` (stereo not drawn) [54B-32], the pIC50 (rhSYK Activity, Table 54B) is over 7.00.
For `COC(=O)C1CCC(N2CCC(O)(c3ncc(-c4cc(C)cc(Nc5nccc(C(F)(F)F)n5)c4)s3)C2)C1` (stereo not drawn) [54B-34], for the setting “rhSYK Activity, Table 54B”, the pIC50 was over 7.00.
Take `COC(=O)c1cccc(N2CCC(O)(c3ncc(-c4cc(C)cc(Nc5nccc(C(F)(F)F)n5)c4)s3)C2)c1` (stereo not drawn) [54B-35]: the pIC50 (rhSYK Activity, Table 54B) is 6.00 to 7.00.
As to `Cc1cc(Nc2nccc(C(F)(F)F)n2)cc(-c2cnc(C3(O)CC(C(=O)O)N(C(N)=O)C3)s2)c1` (stereo not drawn) [54B-36], where the note is “rhSYK Activity, Table 54B”, the pIC50 was over 7.00.

Values taken from patent publication US8551984B2, “Aminopyrimidines as SYK inhibitors” (Merck Sharp & Dohme Corp., priority 2009, dated 2013).
